In the NIST ThermoML archive (doi:10.1021/je400709f):
Numbers after ± are expanded uncertainties.

Experiment: excess molar enthalpy (molar enthalpy of mixing); xn = mol fraction of the nth substance listed
Settings: 298.15 K, 101 kPa, Liquid, Calvet calorimetry

CCCCCCCC[n+]1ccn(C)c1.F[B-](F)(F)F [1-methyl-3-octylimidazolium tetrafluoroborate] + CCCCO
Settings | excess molar enthalpy [kcal/mol]
x1 = 0.191 | 0.349 ± 0.00813
x1 = 0.195 | 0.355 ± 0.00813
x1 = 0.2 | 0.362 ± 0.00837
x1 = 0.204 | 0.369 ± 0.0086
x1 = 0.209 | 0.376 ± 0.0086
x1 = 0.214 | 0.384 ± 0.00884
x1 = 0.219 | 0.391 ± 0.00884
x1 = 0.223 | 0.397 ± 0.00884
x1 = 0.228 | 0.402 ± 0.00884
x1 = 0.233 | 0.407 ± 0.00908
x1 = 0.238 | 0.413 ± 0.00908
x1 = 0.243 | 0.419 ± 0.00932
x1 = 0.248 | 0.425 ± 0.00932
x1 = 0.254 | 0.431 ± 0.00956
x1 = 0.259 | 0.438 ± 0.00956
x1 = 0.266 | 0.446 ± 0.0098
x1 = 0.272 | 0.453 ± 0.01
x1 = 0.279 | 0.461 ± 0.01
x1 = 0.286 | 0.469 ± 0.0103
x1 = 0.293 | 0.48 ± 0.0108
x1 = 0.301 | 0.492 ± 0.011
x1 = 0.309 | 0.504 ± 0.011
x1 = 0.318 | 0.516 ± 0.0112
x1 = 0.328 | 0.528 ± 0.0115
x1 = 0.337 | 0.541 ± 0.0117
x1 = 0.348 | 0.554 ± 0.012
x1 = 0.359 | 0.566 ± 0.0122
x1 = 0.371 | 0.577 ± 0.0124
x1 = 0.383 | 0.586 ± 0.0127
x1 = 0.392 | 0.593 ± 0.0127
x1 = 0.4 | 0.599 ± 0.0129
x1 = 0.41 | 0.605 ± 0.0129
x1 = 0.419 | 0.608 ± 0.0129
x1 = 0.429 | 0.611 ± 0.0129
x1 = 0.44 | 0.611 ± 0.0129
x1 = 0.451 | 0.611 ± 0.0129
x1 = 0.462 | 0.608 ± 0.0129
x1 = 0.474 | 0.605 ± 0.0129
x1 = 0.487 | 0.6 ± 0.0129
x1 = 0.501 | 0.596 ± 0.0127
x1 = 0.515 | 0.589 ± 0.0127
x1 = 0.53 | 0.582 ± 0.0124
x1 = 0.546 | 0.571 ± 0.0122
x1 = 0.563 | 0.56 ± 0.012
x1 = 0.582 | 0.545 ± 0.0117
x1 = 0.601 | 0.531 ± 0.0115
x1 = 0.622 | 0.511 ± 0.011
x1 = 0.644 | 0.49 ± 0.0105
x1 = 0.653 | 0.482 ± 0.0105
x1 = 0.663 | 0.474 ± 0.0103
x1 = 0.673 | 0.464 ± 0.01
x1 = 0.683 | 0.455 ± 0.01
x1 = 0.693 | 0.443 ± 0.0098
x1 = 0.704 | 0.429 ± 0.00956
x1 = 0.715 | 0.417 ± 0.00908
x1 = 0.727 | 0.405 ± 0.00884
x1 = 0.739 | 0.392 ± 0.0086
x1 = 0.751 | 0.378 ± 0.00837
x1 = 0.764 | 0.363 ± 0.00813
x1 = 0.777 | 0.348 ± 0.00789
x1 = 0.79 | 0.331 ± 0.00741
x1 = 0.804 | 0.313 ± 0.00717
x1 = 0.819 | 0.294 ± 0.00693
x1 = 0.834 | 0.275 ± 0.00645
x1 = 0.85 | 0.254 ± 0.00598
x1 = 0.866 | 0.231 ± 0.00574
x1 = 0.883 | 0.208 ± 0.0055
x1 = 0.9 | 0.18 ± 0.00502
x1 = 0.919 | 0.149 ± 0.00478
x1 = 0.938 | 0.114 ± 0.0043
x1 = 0.958 | 0.0796 ± 0.00406
x1 = 0.978 | 0.0411 ± 0.00406

CCCCCCCC[n+]1ccn(C)c1.F[B-](F)(F)F [1-methyl-3-octylimidazolium tetrafluoroborate] + CCCO
Settings | excess molar enthalpy [kcal/mol]
x1 = 0.136 | 0.302 ± 0.00741
x1 = 0.138 | 0.306 ± 0.00741
x1 = 0.141 | 0.311 ± 0.00741
x1 = 0.144 | 0.317 ± 0.00789
x1 = 0.146 | 0.322 ± 0.00789
x1 = 0.149 | 0.327 ± 0.00789
x1 = 0.152 | 0.333 ± 0.00789
x1 = 0.156 | 0.339 ± 0.00813
x1 = 0.159 | 0.345 ± 0.00813
x1 = 0.163 | 0.352 ± 0.00837
x1 = 0.166 | 0.358 ± 0.0086
x1 = 0.169 | 0.363 ± 0.00837
x1 = 0.173 | 0.368 ± 0.00837
x1 = 0.176 | 0.374 ± 0.00884
x1 = 0.179 | 0.38 ± 0.00884
x1 = 0.183 | 0.385 ± 0.00884
x1 = 0.187 | 0.391 ± 0.00908
x1 = 0.19 | 0.397 ± 0.00932
x1 = 0.194 | 0.404 ± 0.00908
x1 = 0.199 | 0.411 ± 0.00932
x1 = 0.203 | 0.419 ± 0.00956
x1 = 0.208 | 0.426 ± 0.0098
x1 = 0.212 | 0.435 ± 0.01
x1 = 0.217 | 0.443 ± 0.01
x1 = 0.223 | 0.451 ± 0.01
x1 = 0.228 | 0.46 ± 0.0103
x1 = 0.234 | 0.469 ± 0.0105
x1 = 0.24 | 0.479 ± 0.0108
x1 = 0.247 | 0.489 ± 0.011
x1 = 0.253 | 0.5 ± 0.011
x1 = 0.261 | 0.511 ± 0.0112
x1 = 0.268 | 0.523 ± 0.0115
x1 = 0.276 | 0.534 ± 0.0117
x1 = 0.285 | 0.546 ± 0.012
x1 = 0.29 | 0.554 ± 0.0122
x1 = 0.296 | 0.562 ± 0.0122
x1 = 0.302 | 0.57 ± 0.0124
x1 = 0.309 | 0.577 ± 0.0124
x1 = 0.315 | 0.585 ± 0.0127
x1 = 0.322 | 0.592 ± 0.0129
x1 = 0.329 | 0.6 ± 0.0129
x1 = 0.337 | 0.607 ± 0.0131
x1 = 0.345 | 0.614 ± 0.0131
x1 = 0.353 | 0.62 ± 0.0134
x1 = 0.362 | 0.624 ± 0.0134
x1 = 0.371 | 0.629 ± 0.0134
x1 = 0.381 | 0.632 ± 0.0134
x1 = 0.391 | 0.634 ± 0.0136
x1 = 0.401 | 0.635 ± 0.0136
x1 = 0.413 | 0.635 ± 0.0136
x1 = 0.425 | 0.636 ± 0.0136
x1 = 0.437 | 0.635 ± 0.0136
x1 = 0.451 | 0.634 ± 0.0136
x1 = 0.465 | 0.632 ± 0.0134
x1 = 0.48 | 0.628 ± 0.0134
x1 = 0.496 | 0.623 ± 0.0134
x1 = 0.513 | 0.617 ± 0.0131
x1 = 0.532 | 0.61 ± 0.0131
x1 = 0.552 | 0.598 ± 0.0129
x1 = 0.56 | 0.592 ± 0.0127
x1 = 0.569 | 0.586 ± 0.0127
x1 = 0.578 | 0.579 ± 0.0124
x1 = 0.587 | 0.571 ± 0.0122
x1 = 0.596 | 0.563 ± 0.0122
x1 = 0.606 | 0.555 ± 0.012
x1 = 0.616 | 0.545 ± 0.0117
x1 = 0.627 | 0.535 ± 0.0115
x1 = 0.638 | 0.525 ± 0.0115
x1 = 0.649 | 0.513 ± 0.0112
x1 = 0.66 | 0.501 ± 0.011
x1 = 0.672 | 0.488 ± 0.0105
x1 = 0.685 | 0.474 ± 0.0103
x1 = 0.698 | 0.458 ± 0.01
x1 = 0.711 | 0.443 ± 0.0098
x1 = 0.725 | 0.425 ± 0.00932
x1 = 0.74 | 0.407 ± 0.00908
x1 = 0.755 | 0.387 ± 0.0086
x1 = 0.771 | 0.366 ± 0.00837
x1 = 0.787 | 0.343 ± 0.00789
x1 = 0.804 | 0.319 ± 0.00741
x1 = 0.822 | 0.293 ± 0.00693
x1 = 0.841 | 0.265 ± 0.00645
x1 = 0.86 | 0.235 ± 0.00598
x1 = 0.881 | 0.202 ± 0.0055
x1 = 0.902 | 0.168 ± 0.00478
x1 = 0.925 | 0.131 ± 0.0043
x1 = 0.949 | 0.0915 ± 0.00406
x1 = 0.974 | 0.0476 ± 0.00359

CCCCCCCC[n+]1ccn(C)c1.F[B-](F)(F)F [1-methyl-3-octylimidazolium tetrafluoroborate] + CCO
Settings | excess molar enthalpy [kcal/mol]
x1 = 0.135 | 0.382 ± 0.00908
x1 = 0.137 | 0.386 ± 0.00884
x1 = 0.14 | 0.391 ± 0.00884
x1 = 0.143 | 0.396 ± 0.00908
x1 = 0.146 | 0.401 ± 0.00908
x1 = 0.149 | 0.406 ± 0.00932
x1 = 0.152 | 0.411 ± 0.00932
x1 = 0.155 | 0.415 ± 0.00932
x1 = 0.159 | 0.421 ± 0.00956
x1 = 0.162 | 0.426 ± 0.00956
x1 = 0.166 | 0.431 ± 0.00956
x1 = 0.17 | 0.437 ± 0.0098
x1 = 0.174 | 0.442 ± 0.0098
x1 = 0.178 | 0.448 ± 0.0098
x1 = 0.183 | 0.454 ± 0.01
x1 = 0.188 | 0.46 ± 0.01
x1 = 0.193 | 0.466 ± 0.0103
x1 = 0.198 | 0.472 ± 0.0103
x1 = 0.204 | 0.479 ± 0.0105
x1 = 0.209 | 0.486 ± 0.0108
x1 = 0.216 | 0.494 ± 0.0108
x1 = 0.222 | 0.502 ± 0.011
x1 = 0.23 | 0.51 ± 0.0112
x1 = 0.237 | 0.519 ± 0.0115
x1 = 0.242 | 0.527 ± 0.0117
x1 = 0.247 | 0.534 ± 0.0117
x1 = 0.253 | 0.542 ± 0.012
x1 = 0.259 | 0.55 ± 0.012
x1 = 0.264 | 0.557 ± 0.0122
x1 = 0.271 | 0.565 ± 0.0122
x1 = 0.277 | 0.572 ± 0.0124
x1 = 0.284 | 0.579 ± 0.0124
x1 = 0.291 | 0.586 ± 0.0127
x1 = 0.299 | 0.592 ± 0.0127
x1 = 0.307 | 0.598 ± 0.0129
x1 = 0.315 | 0.603 ± 0.0129
x1 = 0.324 | 0.608 ± 0.0129
x1 = 0.334 | 0.611 ± 0.0131
x1 = 0.344 | 0.614 ± 0.0131
x1 = 0.354 | 0.617 ± 0.0131
x1 = 0.365 | 0.619 ± 0.0131
x1 = 0.377 | 0.621 ± 0.0131
x1 = 0.39 | 0.622 ± 0.0131
x1 = 0.404 | 0.622 ± 0.0131
x1 = 0.419 | 0.621 ± 0.0131
x1 = 0.435 | 0.619 ± 0.0131
x1 = 0.452 | 0.614 ± 0.0131
x1 = 0.47 | 0.608 ± 0.0129
x1 = 0.49 | 0.601 ± 0.0129
x1 = 0.499 | 0.597 ± 0.0127
x1 = 0.507 | 0.593 ± 0.0127
x1 = 0.517 | 0.588 ± 0.0127
x1 = 0.526 | 0.583 ± 0.0124
x1 = 0.536 | 0.577 ± 0.0124
x1 = 0.546 | 0.57 ± 0.0122
x1 = 0.556 | 0.563 ± 0.0122
x1 = 0.567 | 0.555 ± 0.012
x1 = 0.579 | 0.546 ± 0.0117
x1 = 0.591 | 0.537 ± 0.0115
x1 = 0.603 | 0.526 ± 0.0115
x1 = 0.616 | 0.515 ± 0.0112
x1 = 0.629 | 0.503 ± 0.011
x1 = 0.643 | 0.489 ± 0.0105
x1 = 0.658 | 0.475 ± 0.0103
x1 = 0.673 | 0.458 ± 0.01
x1 = 0.689 | 0.441 ± 0.00956
x1 = 0.706 | 0.422 ± 0.00932
x1 = 0.724 | 0.401 ± 0.00884
x1 = 0.743 | 0.379 ± 0.00837
x1 = 0.762 | 0.354 ± 0.00789
x1 = 0.783 | 0.327 ± 0.00741
x1 = 0.805 | 0.297 ± 0.00693
x1 = 0.828 | 0.266 ± 0.00645
x1 = 0.852 | 0.23 ± 0.00574
x1 = 0.878 | 0.193 ± 0.00502
x1 = 0.906 | 0.15 ± 0.00454
x1 = 0.935 | 0.106 ± 0.00382
x1 = 0.966 | 0.0557 ± 0.00335
